According to patent publication US6541256B1, “Growth medium for human corneal endothelial cells” (The Schepens Eye Research Institute, Inc., priority 1999, dated 2003):

Test system: endothelial "ionic pump"
Experiment: pump function tested by pachymetry of transplanted corneas after exposure to ouabain
Set-up: species or system human
Details: 200 μM ouabain
Procedure: Corneas from donors (52-80 years old) were obtained from an eye bank. Descemet's membrane was stripped and endothelial cells were removed by mild EDTA treatment. Cells, cultured in the preferred formulation of the culture medium, were identified by RT-PCR of collagen type VIII and keratin-12 and by morphology. Cells (2.5×10^5) were seeded onto denuded Descemet's membrane from a second donor cornea. The cornea was incubated in culture for up to 1 month. Cell-cell contact of transplanted cells was evaluated by ZO-1 staining. Morphology and ultrastructure were examined by transmission electron microscopy. Pump function was tested by pachymetry after exposure to 200 μM ouabain. Cultured cells were identified as corneal endothelium by characteristic mRNA expression and morphology. The success rate of primary cultures, obtained from corneas stored <5 days after death, was about 99%. […] With time, cell-substrate adhesion, cell-cell contact, and lateral interdigitation increased, and the cells rearranged to form a monolayer. When the endothelium is functional, it draws water out of the corneal stroma, resulting in a thin cornea. Ouabain, a cardiac glycoside, inhibits the function of the endothelial “ionic pump”, causing an increase in corneal thickness. […] Referring to FIG. 4, pachymetry of transplanted corneas after ouabain treatment is graphically depicted. […]

## C[C@@H]1O[C@@H](O[C@H]2C[C@@H](O)[C@]3(CO)[C@H]4[C@H](O)C[C@]5(C)[C@@H](C6=CC(=O)OC6)CC[C@]5(O)[C@@H]4CC[C@]3(O)C2)[C@H](O)[C@H](O)[C@H]1O [ouabain]
Transplanted corneas after 14 days in organ culture
  period over which corneal thickness increased to maximum: 2 to 3 h
Transplants maintained 14 days in organ culture, 5 corneas
  corneal thickness measured by pachymetry (FIG. 4): increased to a level equal to that of corneas denuded of endothelium
